Here are results for nine molecules from patent US7241913B2, “Ruthenium compounds” (The University Court of the University of Edinburgh, priority 2003, dated 2007).

The test system of assay [1] is A2780 ovarian cancer cell line. Nature of the assay: Growth inhibition of human ovarian cancer cells, 24 h exposure, Coulter cell count. It counts as cell-based. How it is done:
(§1) The human ovarian cells were added at a density of 1×10^4 cells per well to 24-well tissue culture trays (Falcon Plastic, Becton Dickenson, Lincon Park, N.J., USA) and allowed to grow for 72 h before addition of the Ru(II) arene complexes. Stock solutions of the ruthenium compounds were made up fresh in deionised water and sonicated to ensure complete dissolution. These stock solutions were diluted with media to give final concentrations ranging between 0.1 and 100 μM. All compounds were evaluated at each concentration in duplicate wells, and complete assays were repeated a minimum of three times. Cisplatin or carboplatin was employed as a positive and comparative control in each experiment. After 24-hours exposure the drug-containing medium was removed, the cells washed with phosphate buffered saline (PBS) and fresh medium was added. Cell number was assessed after a further 72 h growth using a Coulter counter (Coulter Electronics Ltd, Luton, UK) and the IC50 values (concentration of drug causing 50% growth inhibition) calculated by linear regression analysis comparing the inhibitory effects of the drugs against the growth of untreated cells.
(§2) The cell lines and methods used are also described in Aird et al, Br. J. Cancer, (2002), 86, 1652–1657.
(§3) Using the above protocol, a number of compounds of the invention were tested on A2780 ovarian cancer cell line, on an A2780 ovarian cancer cell line resistant to cis-platin (A2780^CIS), and on an A2780 ovarian cancer cell line resistant to adriamycin (A2780^AD). Some of the compounds were tested on an A549 cell line.

In assay [2] the test system is A2780 ovarian cancer cell line resistant to cis-platin (A2780^CIS). Nature of the assay: Growth inhibition, cis-platin resistant ovarian line. It counts as cell-based, human. The note with it: cis-platin resistant A2780 relative to A2780. How it is done:
as §1, §2, §3

For assay [3], the system named is A2780 ovarian cancer cell line resistant to adriamycin (A2780^AD). Nature of the assay: Growth inhibition, adriamycin resistant ovarian line. It is filed as cell-based, human. The note with it: adriamycin resistant A2780 relative to A2780. How it is done:
as §1, §2, §3

Another assay relates to A549 cell line. Nature of the assay: Growth inhibition, A549 cell line. It counts as cell-based. The following applies: A549 cells; Table 1. How it is done:
as §1, §3

Setting [4] is: 24 h exposure, cell number after further 72 h growth, Table 1.
Where [5] appears, read: comparison with 1,2-diaminoethane analogues.

The structures appear in SMILES notation.

Turning to `F[P-](F)(F)(F)(F)F.[Cl][Ru-]1[NH2+]c2ccccc2[NH2+]1.c1ccc(-c2ccccc2)cc1` [EX 1, [(η^6-Biphenyl)Ru(o-phenylenediamine)Cl]PF6], the IC50 in assay [1] (setting [4]) and in assay [1] (setting [5]) was 5 µM each time. Also, the “A2780^CIS Fold resistance” value in assay [2] (Table 1) and in assay [2] (setting [5]) was 1 fold each time. Moreover, the “A2780^AD fold resistance” value in assay [3] (Table 1) and in assay [3] (setting [5]) was 0.8 fold each time.
Regarding `F[P-](F)(F)(F)(F)F.F[P-](F)(F)(F)(F)F.Nc1ccc(-c2ccc(N)c(N)c2)cc1N.[Cl][Ru+].[Cl][Ru+].c1ccc(-c2ccccc2)cc1.c1ccc(-c2ccccc2)cc1` [EX 2, {[(η^6-Biphenyl)Ru(diaminobenzidine)Cl]PF6}2], inhibition in assay [1] (setting [4]) was half-maximal at 52 µM (IC50).
With `F[P-](F)(F)(F)(F)F.Nc1ccccc1N.[Cl][Ru+].c1ccc2c(c1)Cc1ccccc1C2` [EX 3, [(η^6-dihydroanthracene)Ru(o-phenylenediamine)Cl]PF6], the IC50 in assay [1] (setting [4]) and in assay [1] (setting [5]) was 7 µM each time. Moreover, the “A2780^CIS Fold resistance” value in assay [2] (Table 1) and in assay [2] (setting [5]) was 5 fold throughout. Moreover, the “A2780^AD fold resistance” value in assay [3] (Table 1) and in assay [3] (setting [5]) was 2 fold each time.
Molecule `F[P-](F)(F)(F)(F)F.Nc1cccc(O)c1N.[Cl][Ru+].c1ccc(-c2ccccc2)cc1` [EX 4, [(η^6-Biphenyl)Ru(2,3-diaminophenol)Cl]PF6] gave an IC50 in assay [1] (setting [4]) of 32 µM.
In turn, `Cc1ccc(N)c(N)c1.F[P-](F)(F)(F)(F)F.[Cl][Ru+].c1ccc2c(c1)CCC2` [EX 5, [(η^6-indan)Ru(3,4-diaminotoluene)Cl]PF6] registered an IC50 in assay [1] (setting [4]) of 4 µM.
For the molecule `Cc1ccc(C(C)C)cc1.F[P-](F)(F)(F)(F)F.Nc1ccccc1N.[Cl][Ru+]` [EX 6, [(η^6-p-cymene)Ru(o-phenylenediamine)Cl]PF6], the IC50 in assay [1] (setting [4]) and in assay [1] (setting [5]) was 11 µM in each case. Moreover, the “A2780^CIS Fold resistance” value in assay [2] (Table 1) and in assay [2] (setting [5]) was 1 fold each time. For the same molecule, the “A2780^AD fold resistance” value in assay [3] (Table 1) and in assay [3] (setting [5]) was 0.6 fold each time.
With `F[P-](F)(F)(F)(F)F.Nc1ccc([N+](=O)[O-])cc1N.[Cl][Ru+].c1ccc2c(c1)CCCC2` [Example 7, [(η^6-1,2,3,4-tetrahydronaphthalene)Ru(1,2-diamino-4-nitrobenzene)Cl]PF6], the IC50 in assay [1] (setting [4]) worked out at 59 µM; with A549 cell line, 148 µM.
Regarding `Nc1ccc2c(c1N)C(=O)c1ccccc1C2=O.[Cl-].[Cl][Ru+].c1ccc2c(c1)CCC2` [Example 8, [(η^6-indan)Ru(1,2-diaminoanthraquinone)Cl]Cl], the IC50 in assay [1] (setting [4]) came out at 15 µM; with A549 cell line it was 48 µM.
In the case of `Nc1ccc2c(c1N)C(=O)c1ccccc1C2=O.[Cl-].[Cl][Ru+].c1ccc2c(c1)CCCC2` [Example 9, [(η^6-1,2,3,4-tetrahydronaphthalene)Ru(1,2-diaminoanthraquinone)Cl]Cl], the IC50 in assay [1] (setting [4]) amounted to 37 µM; in the assay with A549 cell line it was 61 µM.

Usually IC50 stands for the point on the concentration scale where inhibition reaches its midpoint. A high value points to weaker potency.
